# According to ChEMBL document CHEMBL4340505, “000Synthesis of new α-aminophosphonates: Evaluation as anti-inflammatory agents and QSAR studies” (2019):
# Activity calls are given as the source filed them. The rule behind the calls is not given here.
# How the values were obtained:
# [1] = tested on: Mus musculus; assay: Antiinflammatory activity in ICR mouse assessed as inhibition of TPA-induced ear edema by measuring reduction in weight of ear punches applied topically measured 4 hrs post TPA-challenge; format: functional
# [2] = tested on: Mus musculus; assay: Potency index, ratio of indomethacin ED50 to test compound ED50 for antiinflammatory activity in ICR mouse assessed as inhibition of TPA-induced ear edema by measuring reduction in weight of ear punches applied topically; format: functional
# [3] = tested on: Mus musculus; assay: Antiinflammatory activity in ICR mouse assessed as inhibition of TPA-induced ear edema by measuring reduction in weight of ear punches applied topically measured 4 hrs post TPA-challenge relative to control; format: functional
# [4] = tested on: Mus musculus; assay: Antiinflammatory activity in TPA-induced ICR mouse ear edema model assessed as reduction in number of neutrophils at 5.7 mg/ear applied topically measured 4 hrs post-TPA challenge by giemsa staining-based microscopic method; format: functional, organism-based
# [5] = tested on: Mus musculus; assay: Antiinflammatory activity in TPA-induced ICR mouse ear edema model assessed as reduction in neutrophil content AUC at 5.7 mg/ear applied topically measured 4 hrs post-TPA challenge by giemsa staining-based microscopic method relative to control; format: functional; set-up: scale not given: the % may be the effect or the level left
# [6] = tested on: Mus musculus; assay: Antiinflammatory activity in TPA-induced ICR mouse ear edema model assessed as reduction in monocytes content AUC at 5.7 mg/ear applied topically measured 4 hrs post TPA-challenge giemsa staining-based microscopic method; format: functional; set-up: scale not given: the % may be the effect or the level left
# [7] = tested on: Mus musculus; assay: Antiinflammatory activity in TPA-induced ICR mouse ear edema model assessed as reduction in neutrophil content at 5.7 mg/ear applied topically by giemsa staining-based microscopic method; format: functional, organism-based; conditions: TDE = time-dependent effect
# [8] = tested on: Mus musculus; assay: Antiinflammatory activity in TPA-induced ICR mouse ear edema model assessed as reduction in monocyte content at 5.7 mg/ear applied topically by giemsa staining-based microscopic method; format: functional, organism-based; conditions: TDE = time-dependent effect
# [9] = tested on: Mus musculus; assay: Antiinflammatory activity in TPA-induced ICR mouse ear edema model assessed as reduction in number of neutrophils at 10 mg/ear applied topically measured 4 hrs post-TPA challenge by giemsa staining-based microscopic method; format: functional, organism-based
# [10] = tested on: Mus musculus; assay: Antiinflammatory activity in TPA-induced ICR mouse ear edema model assessed as reduction in neutrophil content AUC at 10 mg/ear applied topically measured 4 hrs post-TPA challenge by giemsa staining-based microscopic method relative to control; format: functional; set-up: scale not given: the % may be the effect or the level left
# [11] = tested on: Mus musculus; assay: Antiinflammatory activity in TPA-induced ICR mouse ear edema model assessed as reduction in monocytes content AUC at 10 mg/ear applied topically measured 4 hrs post TPA-challenge giemsa staining-based microscopic method; format: functional; set-up: scale not given: the % may be the effect or the level left
# [12] = tested on: Mus musculus; assay: Antiinflammatory activity in TPA-induced ICR mouse ear edema model assessed as reduction in neutrophil content at 10 mg/ear applied topically by giemsa staining-based microscopic method; format: functional, organism-based; conditions: TDE = time-dependent effect
# [13] = tested on: Mus musculus; assay: Antiinflammatory activity in TPA-induced ICR mouse ear edema model assessed as reduction in monocyte content at 10 mg/ear applied topically by giemsa staining-based microscopic method; format: functional, organism-based; conditions: TDE = time-dependent effect
# [14] = tested on: Mus musculus; assay: Antiinflammatory activity in TPA-induced ICR mouse ear edema model assessed as reduction in number of neutrophils at 1 mg/ear applied topically measured 4 hrs post-TPA challenge by giemsa staining-based microscopic method; format: functional, organism-based
# [15] = tested on: Mus musculus; assay: Antiinflammatory activity in TPA-induced ICR mouse ear edema model assessed as reduction in neutrophil content AUC at 1 mg/ear applied topically measured 4 hrs post-TPA challenge by giemsa staining-based microscopic method relative to control; format: functional; set-up: scale not given: the % may be the effect or the level left
# [16] = tested on: Mus musculus; assay: Antiinflammatory activity in TPA-induced ICR mouse ear edema model assessed as reduction in monocytes content AUC at 1 mg/ear applied topically measured 4 hrs post TPA-challenge giemsa staining-based microscopic method; format: functional; set-up: scale not given: the % may be the effect or the level left
# [17] = tested on: Mus musculus; assay: Antiinflammatory activity in ICR mouse assessed as inhibition of TPA-induced ear edema by measuring reduction in weight of ear punches up to 1.25 mg/ear applied topically measured 4 hrs post TPA-challenge relative to control; format: functional
# [18] = tested on: Mus musculus; assay: Antiinflammatory activity in TPA-induced ICR mouse ear edema model assessed as reduction in number of neutrophils at 3 mg/ear applied topically measured 4 hrs post-TPA challenge by giemsa staining-based microscopic method; format: functional, organism-based
# [19] = tested on: Mus musculus; assay: Antiinflammatory activity in TPA-induced ICR mouse ear edema model assessed as reduction in neutrophil content AUC at 3 mg/ear applied topically measured 4 hrs post-TPA challenge by giemsa staining-based microscopic method relative to control; format: functional; set-up: scale not given: the % may be the effect or the level left
# [20] = tested on: Mus musculus; assay: Antiinflammatory activity in TPA-induced ICR mouse ear edema model assessed as reduction in monocytes content AUC at 3 mg/ear applied topically measured 4 hrs post TPA-challenge giemsa staining-based microscopic method; format: functional; set-up: scale not given: the % may be the effect or the level left
# [21] = tested on: Mus musculus; assay: Antiinflammatory activity in TPA-induced ICR mouse ear edema model assessed as reduction in neutrophil content at 3 mg/ear applied topically by giemsa staining-based microscopic method; format: functional, organism-based; conditions: TDE = time-dependent effect
# [22] = tested on: Mus musculus; assay: Antiinflammatory activity in TPA-induced ICR mouse ear edema model assessed as reduction in monocyte content at 3 mg/ear applied topically by giemsa staining-based microscopic method; format: functional, organism-based; conditions: TDE = time-dependent effect
SMILES,ED50 [1],inhibition [1],Ratio ED50 [2],%max [3],also measured
COc1ccc(CCNC(C)(CO)P(=O)(OC)OC)cc1OC (racemic),0.99 to 1 mg,Dose-dependent effect,0.48,94.6%,
COP(=O)(OC)C(C)(O)COC(C)=O (racemic),0.1 to 10.14 mg,,0.04,47.2%,
COP(=O)(OC)C(C)(COC(C)=O)N[C@@H](C)c1ccccc1 (mixture of isomers),0.73 to 1.37 mg,Dose-dependent effect,0.67,96.1%,Activity [4]: Active; Activity [5]: 46.7%; Activity [6]: 18.9 - 34.1%; Activity [7]: Tde; Activity [8]: Tde
COP(=O)(OC)C(C)(COC(C)=O)NCc1ccccc1 (racemic),0.68 to 1.46 mg,Dose-dependent effect,0.33,97.6%,Activity [9]: Active; Activity [10]: 63%; Activity [11]: 18.9 - 34.1%; Activity [12]: Tde; Activity [13]: Tde
COc1ccc2c(c1)c(CC(=O)O)c(C)n2C(=O)c1ccc(Cl)cc1 [INDOMETHACIN],0.49 mg,Dose-dependent effect,,99.3%,Activity [14]: Active; Activity [15]: 57.7%; Activity [16]: 64.2%; inhibition (INH) [17]: 14.6 - 99.3%
COP(=O)(OC)C(C)(COC(C)=O)NCC1CCCCC1 (racemic),0.95 to 1.05 mg,Dose-dependent effect,0.5,93%,Activity [18]: Active; Activity [19]: 62.9%; Activity [20]: 18.9 - 34.1%; Activity [21]: Tde; Activity [22]: Tde
C=CCNC(C)(COC(C)=O)P(=O)(OC)OC (racemic),0.59 to 1.68 mg,Dose-dependent effect,0.28,74.3%,
COc1ccc(CNC(C)(COC(C)=O)P(=O)(OC)OC)cc1 (racemic),0.58 to 1.73 mg,,0.29,66.1%,
COc1ccc(CCNC(C)(COC(C)=O)P(=O)(OC)OC)cc1OC (racemic),0.77 to 1.29 mg,Dose-dependent effect,0.37,97%,Activity [9]: Active; Activity [10]: 62.6%; Activity [11]: 18.9 - 34.1%; Activity [12]: Tde; Activity [13]: Tde
COP(=O)(OC)C(C)(CO)N[C@@H](C)c1ccccc1 (mixture of isomers),0.95 to 1.05 mg,Dose-dependent effect,0.46,95.6%,
COP(=O)(OC)C(C)(CO)NCc1ccccc1 (racemic),0.28 to 3.63 mg,Dose-dependent effect,0.13,81.6%,
